In patent US11566028B2, “Bicyclic heterocycles as FGFR inhibitors” (Incyte Corporation, priority 2019, dated 2023) one finds IC50 data, which are given here for 16 compounds.

Each structure is given as a SMILES string. Where two headings read alike, the source gives them in different places. Some results are limits rather than exact numbers.

The IC50 is the concentration needed to halve the response being measured.

Holding throughout (format): biochemical
For test [1], the target named is FGFR2 (Homo sapiens (Human), UniProt P21802). Put plainly: FGFR Enzymatic Assay (FRET peptide phosphorylation), FGFR2.
FGFR2, sequence (P21802 22-821): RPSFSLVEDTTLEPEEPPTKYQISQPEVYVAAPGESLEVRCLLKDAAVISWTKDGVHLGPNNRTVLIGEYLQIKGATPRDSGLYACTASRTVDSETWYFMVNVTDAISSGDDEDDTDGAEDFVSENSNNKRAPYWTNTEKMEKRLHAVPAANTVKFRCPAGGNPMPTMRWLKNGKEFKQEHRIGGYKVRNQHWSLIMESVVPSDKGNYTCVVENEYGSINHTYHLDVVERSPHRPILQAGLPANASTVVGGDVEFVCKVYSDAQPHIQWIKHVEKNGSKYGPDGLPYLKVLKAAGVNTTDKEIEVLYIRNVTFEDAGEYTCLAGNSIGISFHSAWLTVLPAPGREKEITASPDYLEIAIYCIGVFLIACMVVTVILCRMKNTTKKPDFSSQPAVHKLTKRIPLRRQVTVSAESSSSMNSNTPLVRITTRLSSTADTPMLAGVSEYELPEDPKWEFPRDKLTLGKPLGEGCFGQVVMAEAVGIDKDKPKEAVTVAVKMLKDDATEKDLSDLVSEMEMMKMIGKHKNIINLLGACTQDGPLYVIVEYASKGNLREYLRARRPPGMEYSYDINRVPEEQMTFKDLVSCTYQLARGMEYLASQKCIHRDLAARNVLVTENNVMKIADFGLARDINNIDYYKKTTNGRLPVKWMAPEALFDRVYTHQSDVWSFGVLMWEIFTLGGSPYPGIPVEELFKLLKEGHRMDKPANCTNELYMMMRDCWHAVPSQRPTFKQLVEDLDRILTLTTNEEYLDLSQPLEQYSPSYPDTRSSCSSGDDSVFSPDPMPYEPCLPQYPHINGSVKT
The target of test [2] is FGFR1 (Homo sapiens (Human), UniProt P11362). Nature of the test: FGFR Enzymatic Assay (FRET peptide phosphorylation), FGFR1. The note with it: pre-incubated for 4 hours.
FGFR1, sequence (P11362 22-822): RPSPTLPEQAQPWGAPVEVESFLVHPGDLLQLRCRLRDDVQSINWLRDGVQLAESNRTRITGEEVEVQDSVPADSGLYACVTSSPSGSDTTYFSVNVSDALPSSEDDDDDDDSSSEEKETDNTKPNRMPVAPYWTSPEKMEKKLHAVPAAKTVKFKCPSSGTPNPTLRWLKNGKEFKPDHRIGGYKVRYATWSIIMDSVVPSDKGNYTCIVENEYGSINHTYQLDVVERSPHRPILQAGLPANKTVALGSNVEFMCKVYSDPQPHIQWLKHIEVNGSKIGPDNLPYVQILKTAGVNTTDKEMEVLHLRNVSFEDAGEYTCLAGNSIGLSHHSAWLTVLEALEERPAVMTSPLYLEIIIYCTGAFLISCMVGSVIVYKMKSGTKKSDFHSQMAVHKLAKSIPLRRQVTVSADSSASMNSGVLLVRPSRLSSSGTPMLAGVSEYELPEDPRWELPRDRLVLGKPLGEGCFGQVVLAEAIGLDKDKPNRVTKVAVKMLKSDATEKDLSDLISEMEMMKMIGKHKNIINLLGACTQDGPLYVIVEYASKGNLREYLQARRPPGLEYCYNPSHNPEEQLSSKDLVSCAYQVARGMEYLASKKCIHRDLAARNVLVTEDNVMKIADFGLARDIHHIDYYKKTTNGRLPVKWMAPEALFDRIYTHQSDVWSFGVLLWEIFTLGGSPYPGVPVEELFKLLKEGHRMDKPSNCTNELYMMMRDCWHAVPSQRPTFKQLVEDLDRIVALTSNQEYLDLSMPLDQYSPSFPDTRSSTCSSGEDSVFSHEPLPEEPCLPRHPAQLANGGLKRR
For test [3], the target named is wild-type un-phosphorylated FGFR3 protein (Homo sapiens (Human), UniProt P22607). Nature of the test: FGFR Enzymatic Assay (FRET peptide phosphorylation), FGFR3. Conditions: pre-incubated for 4 hours.
wild-type un-phosphorylated FGFR3 protein, sequence (P22607 23-806): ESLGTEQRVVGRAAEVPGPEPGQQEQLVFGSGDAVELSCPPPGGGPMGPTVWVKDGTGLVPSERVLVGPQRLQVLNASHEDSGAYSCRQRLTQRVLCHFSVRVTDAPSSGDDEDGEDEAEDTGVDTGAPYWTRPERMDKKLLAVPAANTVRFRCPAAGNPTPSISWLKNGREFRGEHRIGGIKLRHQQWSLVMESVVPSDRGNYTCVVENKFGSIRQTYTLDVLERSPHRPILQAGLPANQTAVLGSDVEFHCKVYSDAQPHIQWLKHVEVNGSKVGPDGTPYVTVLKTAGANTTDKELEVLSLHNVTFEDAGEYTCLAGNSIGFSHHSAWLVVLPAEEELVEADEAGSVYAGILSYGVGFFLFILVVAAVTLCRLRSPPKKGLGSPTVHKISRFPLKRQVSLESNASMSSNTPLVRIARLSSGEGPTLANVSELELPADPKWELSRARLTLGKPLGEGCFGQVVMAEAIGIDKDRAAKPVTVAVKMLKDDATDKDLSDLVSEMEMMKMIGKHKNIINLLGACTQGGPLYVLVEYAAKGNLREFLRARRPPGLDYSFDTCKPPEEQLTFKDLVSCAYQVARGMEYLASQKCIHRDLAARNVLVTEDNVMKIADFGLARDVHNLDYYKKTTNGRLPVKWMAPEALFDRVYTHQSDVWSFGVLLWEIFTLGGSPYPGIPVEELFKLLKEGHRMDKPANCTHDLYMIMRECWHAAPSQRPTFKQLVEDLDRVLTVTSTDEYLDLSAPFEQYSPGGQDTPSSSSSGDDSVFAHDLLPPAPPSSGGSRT

As to `CNC(=O)c1cc(O)c(F)c(-c2cnn3cc(-c4cnn(C)c4)c(O[C@H]4CCOC4)nc23)c1` [Example 31, (S)-4-Fluoro-3-hydroxy-N-methyl-5-(6-(1-methyl-1H-pyrazol-4-yl)-5-((tetrahydrofuran-3-yl)oxy)pyrazolo[1,5-a]pyrimidin-3-yl)benzamide], the results for the IC50 in test [1] (pre-incubated for 4 hours), in test [2] and in test [3] were less than 10 nM, 10 to 30 nM and less than 10 nM, respectively.

In the case of `CNC(=O)c1cc(C)c(F)c(-c2cnn3cc(-c4cnc(N5CCN(C)CC5)o4)c(N[C@H]4CCOC4)nc23)c1` [Example 70, (S)-4-Fluoro-N,3-dimethyl-5-(6-(2-(4-methylpiperazin-1-yl)oxazol-5-yl)-5-((tetrahydrofuran-3-yl)amino)pyrazolo[1,5-a]pyrimidin-3-yl)benzamide], the IC50 in test [1] (pre-incubated for 4 hours) was less than 10 nM; in test [2] it was 30 to 200 nM; in test [3] it was less than 10 nM.

As for `CNC(=O)c1cc(C)c(F)c(-c2cnn3cc(-c4cnn(CCO)c4)c(N[C@H]4CCOC4)nc23)c1` [Example 36, (S)-4-Fluoro-3-(6-(1-(2-hydroxyethyl)-1H-pyrazol-4-yl)-5-((tetrahydrofuran-3-yl)amino)pyrazolo[1,5-a]pyrimidin-3-yl)-N,5-dimethylbenzamide], the 50% inhibitory concentration (IC50) in test [1] (pre-incubated for 4 hours) was less than 10 nM; in test [2] it was 30 to 200 nM; in test [3], less than 10 nM.

With `CNC(=O)c1cccc(-c2cnn3cc(-c4cnn(C)c4)c(OC4CCOC4)nc23)c1` (racemic) [Example 1, N-Methyl-3-(6-(1-methyl-1H-pyrazol-4-yl)-5-((tetrahydrofuran-3-yl)oxy)pyrazolo[1,5-a]pyrimidin-3-yl)benzamide], the concentration for half-maximal inhibition (IC50) in test [1] (pre-incubated for 4 hours) was less than 10 nM; in test [2], 30 to 200 nM; in test [3], less than 10 nM.

In the case of `CNC(=O)c1cc(F)c(F)c(-c2cnn3cc(-c4cnn(CC5CCOCC5)c4)c(N[C@H]4CCOC4)nc23)c1` [Example 54, (S)-3,4-Difluoro-N-methyl-5-(6-(1-((tetrahydro-2H-pyran-4-yl)methyl)-1H-pyrazol-4-y1)-5-((tetrahydrofuran-3-yl)amino)pyrazolo[1,5-a]pyrimidin-3-yl)benzamide], the IC50 in test [1], in test [2] and in test [3] was less than 10 nM each time.

Consider `CNC(=O)c1cc(C)c(F)c(-c2cnn3cc(-c4cnn(C)c4)c(N[C@H]4CCOC4)nc23)c1` [Example 16, (S)-4-Fluoro-N,3-dimethyl-5-(6-(1-methyl-1H-pyrazol-4-yl)-5-((tetrahydrofuran-3-yl)amino)pyrazolo[1,5-a]pyrimidin-3-yl)benzamide], for which the values for the IC50 in test [1] (pre-incubated for 4 hours), in test [2] and in test [3] were less than 10 nM, 30 to 200 nM and less than 10 nM, respectively.

On to `CNC(=O)c1cncc(-c2cnn3cc(-c4cnn(C5CC5)c4)c(O[C@H]4CCOC4)nc23)c1` [Example 21, (S)-5-(6-(1-Cyclopropyl-1H-pyrazol-4-yl)-5-((tetrahydrofuran-3-yl)oxy)pyrazolo[1,5-a]pyrimidin-3-yl)-N-methylnicotinamide], for which the IC50 is less than 10 nM in test [1] (pre-incubated for 4 hours), 30 to 200 nM in test [2] and less than 10 nM in test [3].

Consider `CNC(=O)c1cc(C#N)cc(-c2cnn3cc(-c4ccc(C)nc4)c(O[C@H]4CCOC4)nc23)c1` [Example 28, (S)-3-Cyano-N-methyl-5-(6-(6-methylpyridin-3-yl)-5-((tetrahydrofuran-3-yl)oxy)pyrazolo[1,5-a]pyrimidin-3-yl)benzamide], for which the results for the half-inhibitory concentration (IC50) in test [1] (pre-incubated for 4 hours), in test [2] and in test [3] were 10 to 30 nM, not below 200 nM and less than 10 nM, respectively.

With `CNC(=O)c1cc(F)c(F)c(-c2cnn3cc(-c4ccc(N5CCN(C)CC5)nc4)c(O[C@H]4CCOC4)nc23)c1` [Example 13, (S)-3,4-Difluoro-N-methy1-5-(6-(6-(4-methylpiperazin-1-yl)pyridin-3-y1)-5-((tetrahydrofuran-3-yl)oxy)pyrazolo[1,5-a]pyrimidin-3-yl)benzamide], the IC50 was less than 10 nM in test [1] (pre-incubated for 4 hours), 10 to 30 nM in test [2] and less than 10 nM in test [3].

As for `CNC(=O)c1cc(F)c(F)c(-c2cnn3cc(-c4ccn(C(C)C)c(=O)c4)c(N[C@H]4CCOC4)nc23)c1` [Example 56, (S)-3,4-Difluoro-5-(6-(1-isopropyl-2-oxo-1,2-dihydropyridin-4-y1)-5-((tetrahydrofuran-3-yl)amino)pyrazolo[1,5-a]pyrimidin-3-y1)-N-methylbenzamide], the IC50 is less than 10 nM in test [1], 10 to 30 nM in test [2] and less than 10 nM in test [3].

On to `CNC(=O)c1cc(-c2cnn3cc(-c4ccc(C(C)(C)O)nc4)c(O[C@H]4CCOC4)nc23)c(F)c(C(F)F)c1` [Example 25, (S)-3-(Difluoromethyl)-4-fluoro-5-(6-(6-(2-hydroxypropan-2-yl)pyridin-3-yl)-5-((tetrahydrofuran-3-yl)oxy)pyrazolo[1,5-a]pyrimidin-3-yl)-N-methylbenzamide], for which the IC50 in test [1] (pre-incubated for 4 hours) was less than 10 nM; in test [2] it was 30 to 200 nM; in test [3] it was less than 10 nM.

With `CNC(=O)c1cc(F)c(F)c(-c2cnn3cc(-c4cnn(C5CN(C)C5)c4)c(O[C@H]4CCOC4)nc23)c1` [Example 17, (S)-3,4-Difluoro-N-methyl-5-(6-(1-(1-methylazetidin-3-yl)-1H-pyrazol-4-yl)-5-((tetrahydrofuran-3-yl)oxy)pyrazolo[1,5-a]pyrimidin-3-yl)benzamide], the IC50 in test [1] (pre-incubated for 4 hours), in test [2] and in test [3] was less than 10 nM each time.

Turning to `CNC(=O)c1cc(-c2cnn3cc(-c4cnn(C5CN(C)C5)c4)c(O[C@H]4CCOC4)nc23)c(F)c(C(F)F)c1` [Example 26, (S)-3-(Difluoromethyl)-4-fluoro-N-methyl-5-(6-(1-(1-methylazetidin-3-yl)-1H-pyrazol-4-yl)-5-((tetrahydrofuran-3-yl)oxy)pyrazolo[1,5-a]pyrimidin-3-yl)benzamide], the IC50 in test [1] (pre-incubated for 4 hours), in test [2] and in test [3] was less than 10 nM in each case.

With `CNC(=O)c1cncc(-c2cnn3cc(-c4ccc(N5CCOCC5)nc4)c(O[C@H]4CCOC4)nc23)c1` [Example 20, (S)-N-Methyl-5-(6-(6-morpholinopyridin-3-yl)-5-((tetrahydrofuran-3-yl)oxy)pyrazolo[1,5-a]pyrimidin-3-yl)nicotinamide], the IC50 is less than 10 nM in test [1] (pre-incubated for 4 hours), 30 to 200 nM in test [2] and less than 10 nM in test [3].

Regarding `CNC(=O)c1cc(-c2cnn3cc(-c4cccnc4)c(O[C@H]4CCOC4)nc23)c(F)c(C(F)F)c1` [Example 23, (S)-3-(Difluoromethyl)-4-fluoro-N-methyl-5-(6-(pyridin-3-yl)-5-((tetrahydrofuran-3-yl)oxy)pyrazolo[1,5-a]pyrimidin-3-yl)benzamide], the values for the concentration for half-maximal inhibition (IC50) in test [1] (pre-incubated for 4 hours), in test [2] and in test [3] were less than 10 nM, 30 to 200 nM and less than 10 nM, respectively.

As to `[2H]C([2H])([2H])NC(=O)c1cc(C)c(F)c(-c2cnn3cc(-c4cnc(C5CCN(C(C)C)CC5)o4)c(N[C@H]4CCOC4)nc23)c1` [Example 68, (S)-4-Fluoro-3-(6-(2-(1-isopropylpiperidin-4-yl)oxazol-5-yl)-5-((tetrahydrofuran-3-yl)amino)pyrazolo[1,5-a]pyrimidin-3-yl)-5-methyl-N-(methyl-d3)benzamide], the IC50 in test [1] (pre-incubated for 4 hours) is less than 10 nM; in test [2] it was 30 to 200 nM; in test [3] it was less than 10 nM.
